According to patent US20240381872A1, “SUBSTITUTED 2,3-DIHYDRO[1,3]THIAZOLO[4,5-B]PYRIDINES, SALTS THEREOF AND THEIR USE AS HERBICIDALLY ACTIVE SUBSTANCES” (BAYER AKTIENGESELLSCHAFT, priority 2021, published 2024):

Columns and labels:
Type in all cases: in vivo
Glycine max (GLXMA) [1] = test: Post-emergence effects on crop plants, section F (Table F4)
Summary of the method: (§1)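 Sandy loam, greenhouse, controlled conditions. Spray at single-leaf stage (2–3 wk post-sowing); WP/EC aqueous suspension/emulsion + 0.5% additive, 600 l water/ha; rate ≤320 g/ha. Visual scoring ca. 3 wk post-spray vs untreated, % effect.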

[2] = tested on: Polygonum convolvulus (POLCO); test: Herbicidal post-emergence action, section E (Table E7); conditions: Fallopia convolvulus, 504 h, application rate 320 g/ha, visual assessment ca. 3 weeks after spraying, read-out: post-emergence activity against POLCO in %
Text: (§2) Seeds of mono- and dicotyledonous weed plants and crop plants were sown, in plastic or organic planting pots, in sandy loam, covered with soil and grown in a greenhouse under controlled growth conditions. 2 to 3 weeks after sowing, the test plants were sprayed in the single-leaf stage. The compounds according to the invention, formulated in form of wettable powders (WP) or as emulsifiable concentrates (EC), were sprayed onto the green plant parts as aqueous suspension or emulsion, with the addition of 0.5% of an additive, at an application rate of 600 l of water/ha (converted). The test plants were placed in the greenhouse for ca. 3 weeks under optimum growth conditions, and then the effect of the preparations was assessed visually in comparison with untreated controls (herbicidal effect in percent (%): 100% effect=plants have died off, 0% effect=as control plants).

Oryza sativa (ORYZA) [3] = test: Pre-emergence effects on crop plants, section D (Table D3); conditions: visual grading after ca. 3 weeks
Text: (§3) Seeds of mono- and dicotyledonous weed plants and crop plants were sown, in plastic or organic planting pots, in sandy loam and covered with soil. The compounds according to the invention, formulated in the form of wettable powders (WP) or as emulsifiable concentrates (EC), were applied to the surface of the covering soil as aqueous suspension or emulsion, with the addition of 0.5% of an additive, at an application rate of 600 l of water/ha (converted).
(§4) Following treatment, the pots were placed in a greenhouse and kept under optimum growth conditions for the test plants. The visual grading of the damage to the test plants was carried out after ca. 3 weeks in comparison to untreated controls (herbicidal effect in percent (%): 100% effect=plants have died off, 0% effect=as control plants).
(§5) Tables D1 to D5 below show the effects of various compounds of the general formula (I) according to Table 1 on various crop plants and an application rate corresponding to 320 g/ha or below obtained by the experimental procedure mentioned above in Biological Examples, Section C.

Zea mays (ZEAMX) [4] = test: Pre-emergence effects on crop plants, section D (Table D1); conditions: visual grading after ca. 3 weeks
Summary of the method: (§6)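 After sowing in sandy loam and covering with soil, pots receive compound applied to the soil surface at rates up to 320 g/ha in 600 l water/ha containing 0.5% additive. Plants then grow under optimum greenhouse conditions. Percent herbicidal effect is rated visually at roughly 3 weeks against untreated pots.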

[5] = tested on: Echinochloa crus-galli (ECHCG); test: Herbicidal pre-emergence action, section C (Table C3); conditions: application rate 320 g/ha, visual grading after ca. 3 weeks vs untreated controls
Text: (§7) Seeds of mono- and dicotyledonous weed plants and crop plants were sown, in plastic or organic planting pots, in sandy loam and covered with soil. The compounds according to the invention, formulated in the form of wettable powders (WP) or as emulsifiable concentrates (EC), were applied to the surface of the covering soil as aqueous suspension or emulsion, with the addition of 0.5% of an additive, at an application rate of 600 l of water/ha (converted). Following treatment, the pots were placed in a greenhouse and kept under optimum growth conditions for the test plants. The visual grading of the damage to the test plants was carried out after ca. 3 weeks in comparison to untreated controls (herbicidal effect in percent (%): 100% effect=plants have died off, 0% effect=as control plants).

Glycine max (GLXMA) [6] = test: Pre-emergence effects on crop plants, section D (Table D4); conditions: application rate 320 g/ha; visual grading after ca. 3 weeks
Summary of the method: as §6

Zea mays (ZEAMX) [7] = test: Post-emergence effects on crop plants, section F (Table F1); conditions: application rate 320 g/ha
Summary of the method: as §1

Lolium rigidum (LOLRI) [8] = test: Herbicidal pre-emergence action, section C (Table C5); conditions: Lolium rigidum, pre-emergence, 504 h; application rate 320 g/ha; visual grading after ca. 3 weeks; read-out: pre-emergence activity against LOLRI in %
Text: as §7

[9] = tested on: Triticum aestivum (TRZAS); test: Pre-emergence effects on crop plants, section D (Table D2); conditions: visual grading after ca. 3 weeks
Summary of the method: as §6

Oryza sativa (ORYZA) [10] = test: Post-emergence effects on crop plants, section F (Table F3)
Text: as §2, with “plants). Tables F1 to F4 below show the effects of selected compounds of the general formula (I) according to Table 1 on various crop plants and an application rate corresponding to 320 g/ha or below obtained by the experimental procedure mentioned above.” for “plants).”

Brassica napus (BRSNW) [11] = test: Post-emergence effects on crop plants, section F (Table F5); conditions: application rate 80 g/ha
Text: as §2, with “plants). Tables F1 to F4 below show the effects of selected compounds of the general formula (I) according to Table 1 on various crop plants and an application rate corresponding to 320 g/ha or below obtained by the experimental procedure mentioned above.” for “plants).”

Setaria viridis (SETVI) [12] = test: Herbicidal pre-emergence action, section C (Table C8); conditions: application rate 320 g/ha, visual grading after ca. 3 weeks
Text: as §7

[13] = tested on: Alopecurus myosuroides (ALOMY); test: Herbicidal pre-emergence action, section C (Table C2); conditions: Alopecurus myosuroides, pre-emergence, 504 h; application rate 320 g/ha; visual grading after ca. 3 weeks vs untreated controls; read-out: pre-emergence activity against ALOMY in %
Text: as §7

[14] = tested on: Triticum aestivum (TRZAS); test: Post-emergence effects on crop plants, section F (Table F2); conditions: application rate 320 g/ha
Summary of the method: as §1

[15] = tested on: Alopecurus myosuroides (ALOMY); test: Herbicidal post-emergence action, section E (Table E2); conditions: Alopecurus myosuroides, post-emergence, 504 h; application rate 320 g/ha; assessed visually after ca. 3 weeks; read-out: post-emergence activity against ALOMY in %
Text: as §2

[16] = tested on: Polygonum convolvulus (POLCO); test: Herbicidal pre-emergence action, section C (Table C7); conditions: Fallopia convolvulus, pre-emergence, 504 h; application rate 320 g/ha; visual grading after ca. 3 weeks; read-out: pre-emergence activity against POLCO in %
Text: as §7

Veronica persica (VERPE) = test: Herbicidal post-emergence action, section E (Table E9); conditions: Veronica persica, 504 h, application rate 320 g/ha, visual assessment ca. 3 weeks after spraying, read-out: post-emergence activity against VERPE in %
Text: as §2

Brassica napus (BRSNW) [17] = test: Pre-emergence effects on crop plants, section D (Table D5); conditions: application rate 80 g/ha; visual grading after ca. 3 weeks
Text: as §3, §4, §5

[18] = tested on: Amaranthus retroflexus (AMARE); test: Herbicidal pre-emergence action, section C (Table C11); conditions: application rate 80 g/ha; visual grading after ca. 3 weeks
Text: as §7

Lolium rigidum (LOLRI) [19] = test: Herbicidal pre-emergence action, section A (Table A5); conditions: application rate 1280 g/ha; visual grading after ca. 3 weeks vs untreated controls
Summary of the method: (§8)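 In this greenhouse test, sown seeds under soil cover received the compounds as suspensions or emulsions, with 0.5% additive, at 600 l water/ha before emergence. Damage was assessed by eye after about 3 weeks, compared with untreated controls.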

[20] = tested on: Amaranthus retroflexus (AMARE); test: Herbicidal pre-emergence action, section A (Table A11); conditions: application rate 1280 g/ha
Summary of the method: as §8

[21] = tested on: Digitaria sanguinalis (DIGSA); test: Herbicidal pre-emergence action, section C (Table C12); conditions: application rate 320 g/ha; visual grading after ca. 3 weeks
Text: as §7

Setaria viridis (SETVI) [22] = test: Herbicidal pre-emergence action, section A (Table A8); conditions: application rate 320 g/ha
Summary of the method: as §8

[23] = tested on: Digitaria sanguinalis (DIGSA); test: Herbicidal pre-emergence action, section A (Table A12); conditions: application rate 1280 g/ha
Summary of the method: as §8

Stellaria media (STEME) = test: Herbicidal pre-emergence action, section A (Table A9); conditions: application rate 1280 g/ha
Summary of the method: as §8

Kochia scoparia (KCHSC) [24] = test: Herbicidal post-emergence action, section B (Table B4); conditions: application rate 1280 g/ha; visual rating about 3 weeks after treatment vs untreated controls
Summary of the method: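 Greenhouse post-emergence spray on one-leaf-stage plants (sown in sandy loam, 2 to 3 weeks old). WP/EC formulations in water + 0.5% additive, 600 liters per hectare. Read-out: visual % activity vs untreated, ~3 weeks after treatment; 100% = dead, 0% = as control.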

Poa annua (POAAN) = test: Herbicidal pre-emergence action, section A (Table A7); conditions: application rate 320 g/ha; visual grading after ca. 3 weeks vs untreated controls
Summary of the method: as §8

Kochia scoparia (KCHSC) [25] = test: Herbicidal pre-emergence action, section A (Table A4); conditions: application rate 1280 g/ha; visual grading after ca. 3 weeks vs untreated controls
Summary of the method: as §8

Compound: Cc1cc2c(nc1-c1ccccc1F)N(C(=O)C1CC1)CS2 [Example I-018, cyclopropyl[5-(2-fluorophenyl)-6-methyl[1,3]thiazolo[4,5-b]pyridin-3(2H)-yl]methanone]
- percent crop plant damage at 320 g/ha (Glycine max (GLXMA) [1]; Glycine max, 504 h, application rate 320 g/ha, read-out: post-emergence activity against GLXMA in %): 0%
- pest or weed control at 320 g/ha [2]: 80%
- pre-emergence activity against ORYZA in % (crop plant damage) (Oryza sativa (ORYZA) [3]; application rate 80 g/ha): 10%
- pre-emergence activity against ZEAMX in % (crop plant damage) (Zea mays (ZEAMX) [4]; application rate 80 g/ha): 20%
- pest or weed control at 320 g/ha ([5]; Echinochloa crus-galli, pre-emergence, 504 h, read-out: pre-emergence activity against ECHCG in %): 100%
- pre-emergence activity against GLXMA in % (crop plant damage) (Glycine max (GLXMA) [6]): 10%
- percent crop plant damage (phytotoxicity) on Zea mays, post-emergence at 320 g/ha (Zea mays (ZEAMX) [7]; Zea mays, 504 h, read-out: post-emergence activity against ZEAMX in %): 20%
- pest or weed control at 320 g/ha (Lolium rigidum (LOLRI) [8]): 100%
- pre-emergence activity against TRZAS in % (crop plant damage) ([9]; application rate 80 g/ha): 10%
- percent crop plant damage at 80 g/ha (Oryza sativa (ORYZA) [10]; Oryza sativa, 504 h, application rate 80 g/ha, read-out: post-emergence activity against ORYZA in %): 0%
- crop plant damage (phytotoxicity) in % at 80 g/ha (Brassica napus (BRSNW) [11]; Brassica napus, 504 h, read-out: post-emergence activity against BRSNW in %): 10%
- pest or weed control at 320 g/ha (Setaria viridis (SETVI) [12]; Setaria viridis, pre-emergence, 504 h, read-out: pre-emergence activity against SETVI in %): 100%
- pest or weed control at 320 g/ha [13]: 100%
- percent crop plant damage (wheat, post-emergence) at 320 g/ha ([14]; Triticum aestivum, 504 h, read-out: post-emergence activity against TRZAS in %): 10%
- pest or weed control at 320 g/ha [15]: 90%
- pest or weed control at 320 g/ha [16]: 90%
- pest or weed control at 320 g/ha (Veronica persica (VERPE)): 90%
- pre-emergence activity against BRSNW in % (crop plant damage) (Brassica napus (BRSNW) [17]): 10%

Compound: COc1ccccc1-c1nc2c(cc1Br)SCN2B(N)N [Example I-087]
- pre-emergence activity against AMARE in % [18]: 90%
- post-emergence activity against GLXMA in % (Glycine max (GLXMA) [1]; crop plant damage, application rate 80 g/ha): 0%
- pre-emergence activity against ORYZA in % (crop plant damage) (Oryza sativa (ORYZA) [3]; application rate 320 g/ha): 20%
- pre-emergence activity against ZEAMX in % (crop plant damage) (Zea mays (ZEAMX) [4]; application rate 320 g/ha): 10%
- pre-emergence activity against ECHCG in % [5]: 90%
- pre-emergence activity against LOLRI in % (Lolium rigidum (LOLRI) [19]): 100%
- pre-emergence activity against GLXMA in % (crop plant damage) (Glycine max (GLXMA) [6]): 20%
- pre-emergence activity against AMARE in % [20]: 90%
- post-emergence activity against ZEAMX in % (Zea mays (ZEAMX) [7]; crop plant damage): 0%
- pre-emergence activity against DIGSA in % [21]: 90%
- pre-emergence activity against TRZAS in % (crop plant damage) ([9]; application rate 320 g/ha): 10%
- post-emergence activity against ORYZA in % (Oryza sativa (ORYZA) [10]; crop plant damage, application rate 320 g/ha): 0%
- post-emergence activity against BRSNW in % (Brassica napus (BRSNW) [11]; crop plant damage): 0%
- pre-emergence activity against SETVI in % (Setaria viridis (SETVI) [12]): 100%
- post-emergence activity against TRZAS in % ([14]; crop plant damage): 0%
- pre-emergence activity against SETVI in % (Setaria viridis (SETVI) [22]): 100%
- pre-emergence activity against DIGSA in % [23]: 100%
- pre-emergence activity against STEME in % (Stellaria media (STEME)): 90%
- post-emergence activity against KCHSC in % (Kochia scoparia (KCHSC) [24]): 90%
- pre-emergence activity against POAAN in % (Poa annua (POAAN)): 100%
- pre-emergence activity against KCHSC in % (Kochia scoparia (KCHSC) [25]): 90%
- pre-emergence activity against BRSNW in % (crop plant damage) (Brassica napus (BRSNW) [17]): 20%
